{"source": "patent EP0333071A2", "about": "“Polypeptides, methods for their preparation, pharmaceutical compositions comprising them and use” (Eisai Co., Ltd., priority 1988, dated 1989)", "origin": "cited, not measured here", "tested_on": "enhancement in the quantity of spontaneous motion induced by methamphethamine", "details": "general administration; comparison statement for neurotensin or derivatives thereof", "data": [{"substance": "neurotensin", "values": [{"measurement": "methamphethamine antagonism", "result": "hardly exhibit methamphethamine antagonism"}]}]}
